The record followed here is patent publication US20230242526A1 (Zentaur Therapeutics International Limited, priority 2020, published 2023).

The test system of test [1] is human breast squamous HCC1806 cell line. Nature of the test: CyQUANT Direct cell proliferation assay, HCC1806. Particulars: HCC1806, 168 h, 7 days. It is filed as cell-based. An excerpt:
(§1) The human ovarian carcinoma OVCAR3 cell line (ATCC HTB-161™) or human breast squamous HCC1806 cell line (ATCC CRL 2335) were obtained from American Type Culture Collection (ATCC), and maintained in culture media according to the supplier's specification.
(§2) The CyQUANT® Direct Cell Proliferation Assay Kit (Invitrogen™, catalog No. G35012) was utilized to test the inhibitory activities of the CDK2 inhibitors described in this disclosure against OVCAR3 or HCC1806 tumor cells.
(§3) CyQUANT® Direct Cell Proliferation Assay: The spent medium from the purchased tumor cell culture plate was removed and the tumor cells were washed with PBS buffer twice. Trypsin (VWR catalog No. 0458-25G) was added to digest the tumor cells until tumor cells appeared round shaped and to dissociate adherent cells from the plate wall in which they are being cultured. Then RPMI-1640 media (HCC1806, Gibco™ catalog No, A10491-01) with 10% fetal bovine serum (FBS) (Hyclone™ catalog No. SV30160.03), or RPMI-1640 media (OVCAR-3, Gibco™ catalog No. 10370-021) with 20% FBS and 0.01 mg/mL insulin was added to stop the trypsin digestion reaction. The tumor cells were lightly agitated with a liquid transfer pipette to cause tumor cells suspended in the culture media. The cells were counted. The complete medium was used to prepare tumor cell suspension.
(§4) OVCAR3 or HCC1806 cells were seeded at 40 μL/well in 384-well plates in growth media containing FBS and cultured 24 hours in the incubator at 37° C., 5% CO2. […] Compound solutions were added by Agilent Bravo liquid handler. […] The control wells contained the growth medium having 0.1% DMSO. Cells were incubated at 37° C., 5% CO2 for 7 days.
(§5) CYQUANT Direct Cell Proliferation Assay (Molecular Probes, Eugene, Oreg.) was then performed following manufacturer's instructions to prepare the detection reagents. 50 μL of detection reagent was aliquot and added to each well and the cells were incubated at 37° C. for 1 hr.
(§6) The cell culture plates were placed on TECAN M1000 microplate reader to detect the fluorescence intensity at 508 nm excitation and 527 nm emission wavelengths. Graphpad Prism 6.0 software was used for data processing, preparing cell growth curve, calculating percentage inhibition on cell growth. IC50 values were calculated by concentration-response curve fitting utilizing a four-parameter analytical method using GraphPad Prism software.

For another test, the system named is HCC1806 s.c. xenografts. Nature of the test: HCC1806 s.c. breast cancer xenograft efficacy (tumor volume, relative tumor volume, tumor weight, TGI). Format: in vivo, BALB/c nude mice. Particulars: 30 mg/kg P.O. BID; for Tumor Growth Inhibition D3 / Tumor Growth Inhibition D7 / Tumor Growth Inhibition D10 / Tumor Growth Inhibition D14 / Tumor Growth Inhibition D17 / Tumor Growth Inhibition D21: vs control vehicle; for Tumor Growth Inhibition D3 / Tumor volume D3: day 3; for Tumor Growth Inhibition D7 / Tumor volume D7: day 7; for Tumor Growth Inhibition D10 / Tumor volume D10: day 10; for Tumor Growth Inhibition D14 / Tumor volume D14: day 14; for Tumor Growth Inhibition D17 / Tumor volume D17: day 17; for Tumor Growth Inhibition D21 / Tumor volume D21: day 21; for Tumor volume D0 / Tumor volume D3 / Tumor volume D7 / Tumor volume D10 / Tumor volume D14 / Tumor volume D17 / Tumor volume D21 / Tumor weight: group mean; for Tumor volume D0: day 0; for Tumor weight: end of the study (Day 21). Here is the method: The in vivo potency of anti-tumor activities of Comp. 4, Comp. 37, Comp. 5, Comp. 28, Comp. 163, and Comp. 164 have been evaluated on the growth of HCC1806 s.c. xenografts in BALB/c nude mice.
The testing compounds Comp. 4, Comp. 37, Comp. 5, Comp. 28, Comp. 163, and Comp. 164 were prepared according the synthetic routes set forth in the above Examples. The testing formulations for compounds Comp. 4, Comp. 37, Comp. 5, Comp. 28, Comp. 163, and Comp. 164 were prepared as liquid formulation in a liquid vehicle containing 0.1% Tween-80 (purchased form Sinopharm Chemical Reagent Co., Ltd, Lot No. 20190322), 0.5% methyl cellulose (purchased from SIGMA, Lot No. SLBR8963V) in water.
A total of 42+8 female BALB/c nude mice were ordered from Shanghai LC Laboratory Animal Co. Ltd. The animals were specific pathogen free and approximately 4-5 weeks old upon arrival at PharmaLegacy Laboratories.
HCC1806 cell cultures were maintained at 37° C. under 5% CO2 in RPMI-1640 medium supplemented with 10% FBS and were subsequently cultured within 10 passages before inoculated into the mice.
When the average tumor volume reached 80-120 mm^3, 42 tumor-bearing mice were randomized into 7 groups (6 mice per group) according to tumor volume. The grouping day was defined as Day 0. Treatment was applied immediately after grouping animals on the same day.
The body weight of the testing animals were measured twice a week after grouping. Tumor volumes by the length and width of the tumor were measured by electric calipers and the tumor volume (V) was calculated as follows: V=(length×width^2)/2. The individual relative tumor volume (RTV) was calculated as follows: RTV=Vt/V0, where Vt was the volume on each day, and V0 was the volume at the beginning of the treatment.
Tumors were collected at the end of the study (Day 21), the mice were sacrificed. Tumor was collected, weighed, photographed.
Results were expressed as mean±S.E.M. Comparisons between two groups were made by corresponding test, p<0.05 were considered to be significant.

Another test concerns the target CDK9/Cyclin T1 (Homo sapiens, UniProt P50750). In words: CDK9/Cyclin T1 kinase assay. It is filed as biochemical. The protocol:
(1). Recombinant enzymes CDK1, CDK2, CDK4, CDK6, CDK9, cyclin B1, cyclin A2, cyclin D3, cyclin E1, cyclin T1 were cloned and purified at Wuxi Biortus Biochemistry Co. Ltd.
(8) Peptide substrate-CDK9 (Ahx-GSRTPMY-NH2, Scilight-Peptide, Cat. C0769102).
The test compounds were dissolved and diluted in DMSO. A stock DMSO solution of the test compound of the invention was prepared by dissolving the compound in DMSO to form a 10 mM solution.
2 μL of testing compound solutions and 5 μL of enzyme solution were added into the 384-well microplate followed by a 10 minute incubation. The reaction was then initiated by the addition of 5 μL of peptide substrate and ATP mixture solution and incubated at 27° C. for 30 minutes. The enzyme reaction in each well was terminated by adding 4 μL of 120 mM EDTA solution. Each assay was carried out in duplicates.
DMSO was used as negative control (0%) for enzyme activity. 20 μM Staurosporine was used as positive control (100%) for enzyme activity.
Plates were read for fluorescence on a Caliper EZ Reader II by separating the fluorescent labeled substrate from the enzyme phosphorylation product by electrophoresis. Data were collected and analyzed using GraphPad Prism version 6.0 software.
Dose-response curves were plotted from inhibition data generated, each in duplicate, from 10 point serial dilutions of inhibitory compounds. Concentration of compound was plotted against % kinase activity. To generate IC50 values, the dose-response curves were then fitted to a standard sigmoidal curve and IC50 values were derived by nonlinear regression analysis.

In test [2] the test system is human ovarian carcinoma OVCAR3 cell line. Nature of the test: CyQUANT Direct cell proliferation assay, OVCAR-3. Format: cell-based. Particulars: OVCAR-3, 168 h, 7 days.
Excerpt: as §1, §2, §3, §4, §5, §6

Chain of CDK9/Cyclin T1 (P50750 whole entry): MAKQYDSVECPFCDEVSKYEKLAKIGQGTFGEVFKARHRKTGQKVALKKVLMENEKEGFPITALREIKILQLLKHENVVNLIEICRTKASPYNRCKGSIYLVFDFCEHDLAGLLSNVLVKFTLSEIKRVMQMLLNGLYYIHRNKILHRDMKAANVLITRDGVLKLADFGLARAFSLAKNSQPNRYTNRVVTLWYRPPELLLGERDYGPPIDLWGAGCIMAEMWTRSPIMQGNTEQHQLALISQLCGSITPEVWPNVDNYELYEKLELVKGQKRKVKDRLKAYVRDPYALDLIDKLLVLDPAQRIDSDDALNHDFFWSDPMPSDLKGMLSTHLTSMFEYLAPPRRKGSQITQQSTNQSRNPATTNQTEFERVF
Chain of CDK9/Cyclin T1 (O60563 whole entry partner): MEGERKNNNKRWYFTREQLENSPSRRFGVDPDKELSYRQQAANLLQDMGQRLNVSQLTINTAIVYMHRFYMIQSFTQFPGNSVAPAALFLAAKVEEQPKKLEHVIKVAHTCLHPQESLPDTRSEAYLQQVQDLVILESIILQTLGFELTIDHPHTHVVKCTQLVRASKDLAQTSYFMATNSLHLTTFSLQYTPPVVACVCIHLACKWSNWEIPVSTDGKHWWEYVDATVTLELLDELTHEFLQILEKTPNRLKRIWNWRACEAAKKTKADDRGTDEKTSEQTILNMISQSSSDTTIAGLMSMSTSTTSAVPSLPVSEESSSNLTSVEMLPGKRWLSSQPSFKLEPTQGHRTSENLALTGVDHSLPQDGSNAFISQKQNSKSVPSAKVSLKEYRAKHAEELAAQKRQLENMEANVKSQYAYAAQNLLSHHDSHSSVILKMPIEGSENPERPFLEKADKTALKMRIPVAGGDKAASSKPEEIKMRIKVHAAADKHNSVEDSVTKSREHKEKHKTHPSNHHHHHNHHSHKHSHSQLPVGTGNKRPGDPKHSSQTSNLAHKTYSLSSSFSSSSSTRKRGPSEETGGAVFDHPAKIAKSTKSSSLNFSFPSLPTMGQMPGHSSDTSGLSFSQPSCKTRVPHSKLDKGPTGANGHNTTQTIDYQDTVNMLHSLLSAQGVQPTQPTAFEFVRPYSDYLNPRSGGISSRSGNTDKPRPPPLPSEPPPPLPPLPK

Turning to `[2H]C([2H])([2H])c1cc2cnc(NC3CCN(S(C)(=O)=O)CC3)nc2n([C@@H]2CCC[C@@]2(C)O)c1=O` [Comp. 37, (−)-8-((1R,2R)-2-hydroxy-2-methylcyclopentyl)-6-(methyl-d3)-2-((1-(methylsulfonyl)piperidin-4-yl)amino)pyrido[2,3-d]pyrimidin-7(8H)-one], in test [1], the concentration for half-maximal inhibition (IC50) – broadly, the point on the concentration scale where inhibition reaches its midpoint – was 35 nM. Further, in the test on HCC1806 s.c. xenografts, the “tumor volume compared with G1 vehicle on each day” value was “significant smaller tumor volume from day 3 to day 21”; the “tumor weight at the end of the study, in words” value is listed as “lighter tumor but no statistic significance”; the “Tumor Growth Inhibition D3” value stood at 42.52%; the “Tumor Growth Inhibition D7” value stood at 49.20%. Besides, in the test with HCC1806 s.c. xenografts, the “Tumor Growth Inhibition D10” value was 46.10%, the “Tumor Growth Inhibition D14” value was 44.43%, the “Tumor Growth Inhibition D17” value is 48.73% and the “Tumor Growth Inhibition D21” value is 46.8%. In the test on HCC1806 s.c. xenografts, the “Tumor volume D0” value worked out at 109.89 mm^3, the “Tumor volume D3” value is given as 216.01 mm^3, the “Tumor volume D7” value was 370.15 mm^3 and the “Tumor volume D10” value is on record as 596.52 mm^3. In addition, in the test with HCC1806 s.c. xenografts, the “Tumor volume D14” value is reported as 858.29 mm^3, the “Tumor volume D17” value is recorded as 1037.86 mm^3, the “Tumor volume D21” value is on record as 1269.08 mm^3 and the Tumor weight stood at 2.10 g.
Turning to `Cc1cc2cnc(NC3CCN(S(C)(=O)=O)CC3)nc2n([C@@H]2CCC[C@@]2(C)O)c1=O` [Comp. 4, (−)-8-(2-hydroxy-2-methylcyclopentyl)-6-methyl-2-((1-(methylsulfonyl)piperidin-4-yl)amino)pyrido[2,3-d]pyrimidin-7(8H)-one, reference compound], the IC50 in test [1] is 41.5 nM. In addition, in the test with HCC1806 s.c. xenografts, the “Tumor Growth Inhibition D3” value was 30.25%, the “Tumor Growth Inhibition D7” value was 23.11%, the “Tumor Growth Inhibition D10” value is −1.66% and the “Tumor Growth Inhibition D14” value worked out at 6.35%. Further, in the test on HCC1806 s.c. xenografts, the “Tumor Growth Inhibition D17” value came out at 9.13%, the “Tumor Growth Inhibition D21” value amounted to 6.55%, the “Tumor volume D0” value came out at 112.95 mm^3 and the “Tumor volume D3” value was 241.73 mm^3. Besides, in the test with HCC1806 s.c. xenografts, the “Tumor volume D7” value is reported as 506.86 mm^3, the “Tumor volume D10” value was found to be 1030.80 mm^3, the “Tumor volume D14” value is given as 1374.19 mm^3 and the “Tumor volume D17” value is 1757.63 mm^3. In the test with HCC1806 s.c. xenografts, the “Tumor volume D21” value was 2149.25 mm^3 and the Tumor weight was 3.63 g.
On to `[2H]C(F)(F)c1cc2cnc(NC3CCN(S(C)(=O)=O)CC3)nc2n([C@@H]2CCC[C@@]2(C)O)c1=O` [Comp. 28, (−)-6-(difluoromethyl-d)-8-((1R,2R)-2-hydroxy-2-methylcyclopentyl)-2-((1-(methylsulfonyl)piperidin-4-yl)amino)pyrido[2,3-d]pyrimidin-7(8H)-one], for which 75 nM corresponded to half-maximal inhibition in test [1] (IC50). The same molecule came in with an IC50 against CDK9/Cyclin T1 of 3640 nM. Further, the IC50 in test [2] worked out at 32.5 nM. Also, in the test on HCC1806 s.c. xenografts, the “Tumor Growth Inhibition D3” value was found to be 15.44%, the “Tumor Growth Inhibition D7” value is on record as 11.52%, the “Tumor Growth Inhibition D10” value stood at 15.19% and the “Tumor Growth Inhibition D14” value is 12.60%. Also, in the test on HCC1806 s.c. xenografts, the “Tumor Growth Inhibition D17” value was 26.69%, the “Tumor Growth Inhibition D21” value stood at 34.01%, the “Tumor volume D0” value worked out at 111.13 mm^3 and the “Tumor volume D3” value is on record as 267.25 mm^3. In addition, in the test with HCC1806 s.c. xenografts, the “Tumor volume D7” value amounted to 564.40 mm^3, the “Tumor volume D10” value came to 876.82 mm^3, the “Tumor volume D14” value was 1288.11 mm^3 and the “Tumor volume D17” value was found to be 1438.12 mm^3. Also, in the test with HCC1806 s.c. xenografts, the “Tumor volume D21” value amounted to 1549.07 mm^3 and the Tumor weight was determined as 2.84 g.
With `C[C@@]1(O)CCC[C@H]1n1c(=O)c(C(F)F)cc2cnc(NC3CCN(S(C)(=O)=O)CC3)nc21` [Comp. 5, (−)-6-(difluoromethyl)-8-((1R,2R)-2-hydroxy-2-methylcyclopentyl)-2-((1-(methylsulfonyl)piperidin-4-yl)amino)pyrido[2,3-d]pyrimidin-7(8H)-one, reference compound], in test [1], the IC50 is 52.1 nM. The same molecule returned an IC50 against CDK9/Cyclin T1 of 3440 nM. It took 40.3 nM to reach half-maximal inhibition in test [2] (IC50). Further, in the test on HCC1806 s.c. xenografts, the “tumor volume compared with G1 vehicle on each day” value is reported as “significant smaller tumor volume from day 7 to day 21”; the “tumor weight at the end of the study, in words” value is “lighter tumor but no statistic significance”; the “Tumor Growth Inhibition D3” value was determined as 37.46%; the “Tumor Growth Inhibition D7” value turned out to be 42.30%. Also, in the test on HCC1806 s.c. xenografts, the “Tumor Growth Inhibition D10” value is recorded as 39.66%, the “Tumor Growth Inhibition D14” value is given as 42.80%, the “Tumor Growth Inhibition D17” value worked out at 43.13% and the “Tumor Growth Inhibition D21” value amounted to 44.1%. Further, in the test on HCC1806 s.c. xenografts, the “Tumor volume D0” value came to 109.77 mm^3, the “Tumor volume D3” value was found to be 225.24 mm^3, the “Tumor volume D7” value is 405.37 mm^3 and the “Tumor volume D10” value was 654.51 mm^3. In addition, in the test on HCC1806 s.c. xenografts, the “Tumor volume D14” value is on record as 880.11 mm^3, the “Tumor volume D17” value amounted to 1139.14 mm^3, the “Tumor volume D21” value is reported as 1327.79 mm^3 and the Tumor weight amounted to 2.22 g.
